Results taken from US20080195033A1, “Method of Delivery of Therapeutic Metal Ions, Alloys and Salts” (INTERNATIONAL BIO-THERAPEUTIC RESEARCH INC., priority 2004, published 2008).

Key:
[1] = test system: HIVIIIB in CEM-SS cells (p24 antigen); assay: HIV p24 antigen in culture supernatant by antigen capture assay; assay type: cell-based, HIV-1
Protocol: (§1) In one test performed according to the invention, infection studies were carried out in a Level III facility in vitro using HIV-infected and noninfected cells. To establish infection, a viral dose of MOI 0.5 was added to a culture flask. The supernatants of control and test flasks were tested for the presence of the p24 antigen. Cells were then incubated in the presence and absence of silver ions produced by passing current through a sterile silver electrode present in the culture flask. Current was applied for 0, 1, 5, 10 and 30 minutes after incubation of virus with the cells. Cells were then be maintained in culture for 7 days and the concentration of p24 antigen in the supernatant was determined.
(§2) The cells used for such studies were CEM-SS cultured human lymphoblasts to allow detection and monitoring of HIV-induced synceytium. Cells were grown in enriched RPMI medium (20% fetal calf serum; FCS) and maintained in a 5% CO2 enriched tissue culture incubator at 37 degrees Celsius. Infection was conducted at a Multiplicity Dose of 0.5 using HIVIIIB prepared from previously infected CEM-SS stock suspensions.
(§3) In this test performed according to the invention, a silver catheter was introduced by drill into the tissue culture flask, sealed and the flask was then gas-sterilized. Silver ions were generated by connecting the silver electrode to a purpose-built device designed by one of the investigators (RE) powered by a 9 volt battery and designed to generate a steady current of 1.0 milliamp.
(§4) Cell viability was determined using trypan blue dye exclusion. The HIV p24 antigen concentrations in the culture supernatants were determined using an antigen capture assay.
(§5) Each experiment was performed in triplicate and repeated three times. Differences between cells exposed and unexposed to silver ions were compared by analysis of variance.

[2] = test system: CEM-SS infected with HIVIIIB; assay: Cell viability of HIV-infected CEM-SS cells by trypan blue dye exclusion; assay type: cell-based, HIV-1; details: 1.0 mA; for Cell Viability, HIV-Infected Cells: 7 days post exposure
Protocol: as §1, §2, §3, §4, §5

## silver ions
[1]; after 10 minutes of 1.0 mA current flow
  Change in p24 antigen (in words): decline
[1]; over thirty minutes, 1.0 mA, p<0.05
  Decline in the concentration of p24 antigen in HIV-exposed cultures: 56%
[1]; silver ion incubation for five minutes
  Change in p24 concentration (in words): initial increase
[2]; 10 minutes of silver ion exposure
  Increase in cell viability of infected cells compared to similar cells not subjected to the silver ion treatment: greater than 25%
[2]; five minute treatment
  Cell Viability, HIV-Infected Cells: 45% alive
[2]; one minute treatment
  Cell Viability, HIV-Infected Cells: 37% alive
[2]; one minute treatment, listed as Silver Ions
  Cell Viability, HIV-Infected Cells: 37%
[2]; ten minute treatment
  Cell Viability, HIV-Infected Cells: 54% alive
[2]; ten minute treatment, listed as Silver Ions
  Cell Viability, HIV-Infected Cells: 54%
[2]; thirty minute treatment
  Cell Viability, HIV-Infected Cells: 28% alive
